Assay [1] has as its target T1, full length G2019 human LRRK2 (Homo sapiens, UniProt Q5S007, R50H).
T1 construct: made in house; host or cells: HEK293 6E cells transduced with BacMam virus (virus generated in Sf9 cells)
Briefly: Full length G2019 human LRRK2 inhibition mass spectrometry assay. The format is biochemical. Particulars: LRRKtide to phospho-LRRKtide conversion, RapidFire MS, 2 mM ATP. In a few lines:
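Purified full-length Flag-tagged G2019 LRRK2, ~25 nM, with 25 μM LRRKtide and 2 mM ATP in 50 mM Hepes pH 7.2, 10 mM MgCl2, 150 mM NaCl, 1 h at room temperature. Quenched with formic acid; phospho- and unphosphorylated LRRKtide measured by RapidFire MS. pIC50 from 4-parameter fit of % conversion, 11 points, top 100 μM.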

In assay [2] the target is T2, LRRK2 kinase in SH-SY5Y cells over-expressing recombinant full length LRRK2 (Homo sapiens, UniProt Q5S007).
T2 construct: A BacMam virus expressing full length recombinant LRRK2 was purchased from Invitrogen; host or cells: SH-SY5Y human neuroblastoma cells transduced with BacMam LRRK2 virus
T2 sequence (Q5S007 whole entry): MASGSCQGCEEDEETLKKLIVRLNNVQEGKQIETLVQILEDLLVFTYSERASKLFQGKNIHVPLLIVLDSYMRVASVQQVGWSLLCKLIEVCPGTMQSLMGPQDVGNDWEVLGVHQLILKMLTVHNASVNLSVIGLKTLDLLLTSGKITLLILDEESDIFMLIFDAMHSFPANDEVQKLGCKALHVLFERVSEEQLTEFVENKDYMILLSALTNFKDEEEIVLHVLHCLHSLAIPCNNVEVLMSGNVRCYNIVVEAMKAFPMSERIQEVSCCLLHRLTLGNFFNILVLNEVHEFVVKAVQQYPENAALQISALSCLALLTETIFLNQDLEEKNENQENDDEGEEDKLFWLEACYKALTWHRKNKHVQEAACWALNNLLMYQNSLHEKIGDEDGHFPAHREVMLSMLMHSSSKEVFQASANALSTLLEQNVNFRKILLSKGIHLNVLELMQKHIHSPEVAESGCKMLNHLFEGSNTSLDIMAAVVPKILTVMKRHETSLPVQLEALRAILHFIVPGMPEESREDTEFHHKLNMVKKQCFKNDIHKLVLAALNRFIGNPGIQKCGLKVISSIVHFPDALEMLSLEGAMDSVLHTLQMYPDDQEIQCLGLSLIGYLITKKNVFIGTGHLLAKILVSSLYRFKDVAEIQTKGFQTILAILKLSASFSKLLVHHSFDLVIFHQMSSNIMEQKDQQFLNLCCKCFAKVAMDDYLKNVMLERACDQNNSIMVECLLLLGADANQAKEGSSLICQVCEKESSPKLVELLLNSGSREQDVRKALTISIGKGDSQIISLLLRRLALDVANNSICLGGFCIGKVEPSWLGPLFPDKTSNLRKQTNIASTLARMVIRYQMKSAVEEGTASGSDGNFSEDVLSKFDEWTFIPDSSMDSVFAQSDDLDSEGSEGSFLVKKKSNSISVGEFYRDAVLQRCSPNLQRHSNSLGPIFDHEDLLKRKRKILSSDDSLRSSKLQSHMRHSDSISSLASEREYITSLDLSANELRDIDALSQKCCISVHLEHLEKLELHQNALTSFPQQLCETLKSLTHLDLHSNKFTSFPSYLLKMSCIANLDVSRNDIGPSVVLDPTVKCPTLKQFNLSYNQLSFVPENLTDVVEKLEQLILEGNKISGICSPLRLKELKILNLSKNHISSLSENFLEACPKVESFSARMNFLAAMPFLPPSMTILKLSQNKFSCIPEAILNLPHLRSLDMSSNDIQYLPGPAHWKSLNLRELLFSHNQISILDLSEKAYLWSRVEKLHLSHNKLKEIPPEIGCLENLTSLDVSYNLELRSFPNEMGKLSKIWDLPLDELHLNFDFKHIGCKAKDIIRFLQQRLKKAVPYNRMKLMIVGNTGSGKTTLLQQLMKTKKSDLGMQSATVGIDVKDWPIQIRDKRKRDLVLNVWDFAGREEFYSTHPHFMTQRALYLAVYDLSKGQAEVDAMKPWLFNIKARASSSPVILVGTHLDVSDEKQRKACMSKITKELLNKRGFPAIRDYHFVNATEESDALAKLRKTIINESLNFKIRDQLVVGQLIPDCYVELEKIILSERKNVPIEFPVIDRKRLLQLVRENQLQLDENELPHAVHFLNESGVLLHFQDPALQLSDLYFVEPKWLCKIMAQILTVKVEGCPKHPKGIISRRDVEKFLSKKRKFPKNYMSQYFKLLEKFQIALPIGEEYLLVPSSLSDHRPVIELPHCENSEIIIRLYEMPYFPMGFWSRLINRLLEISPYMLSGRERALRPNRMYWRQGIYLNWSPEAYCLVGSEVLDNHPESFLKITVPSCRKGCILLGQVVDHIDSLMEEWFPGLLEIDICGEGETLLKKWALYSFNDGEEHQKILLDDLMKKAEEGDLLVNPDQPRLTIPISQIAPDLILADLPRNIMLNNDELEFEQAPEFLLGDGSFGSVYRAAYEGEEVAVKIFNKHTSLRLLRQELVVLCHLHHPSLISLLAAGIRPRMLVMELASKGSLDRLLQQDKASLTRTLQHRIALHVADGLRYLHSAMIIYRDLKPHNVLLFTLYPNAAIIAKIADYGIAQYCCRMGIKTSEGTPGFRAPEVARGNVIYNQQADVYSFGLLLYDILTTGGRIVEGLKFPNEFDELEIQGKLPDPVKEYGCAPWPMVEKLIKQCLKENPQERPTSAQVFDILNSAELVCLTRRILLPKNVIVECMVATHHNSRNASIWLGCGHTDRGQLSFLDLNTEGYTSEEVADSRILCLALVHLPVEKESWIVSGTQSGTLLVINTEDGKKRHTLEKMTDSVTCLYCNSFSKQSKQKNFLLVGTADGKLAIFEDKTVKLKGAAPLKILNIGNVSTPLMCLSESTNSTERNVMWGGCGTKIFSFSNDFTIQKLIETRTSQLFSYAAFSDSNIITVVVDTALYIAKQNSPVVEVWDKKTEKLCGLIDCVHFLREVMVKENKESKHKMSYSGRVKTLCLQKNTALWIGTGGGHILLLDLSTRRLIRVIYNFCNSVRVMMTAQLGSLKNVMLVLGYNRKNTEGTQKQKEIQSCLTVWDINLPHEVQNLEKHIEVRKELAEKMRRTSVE
Briefly: Recombinant cellular LRRK2 AlphaScreen assay (LRRK2 Ser935 phosphorylation). Type of assay: cell-based. Particulars: 60 min. An outline of the steps: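 SH-SY5Y cells transduced with BacMam full-length LRRK2 (MOI 50) for 24 h, then treated 60 min at 37 °C with compound (11-point 1:4 series, top 10 uM, 0.1% DMSO). Lysates probed by AlphaScreen for pSer935 vs total LRRK2; values fitted to a sigmoidal dose-response model.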

SMILES strings stand for the structures. Bounds are passed on as bounds.

T1 sequence (Q5S007 with tags, fused parts or gaps R50H): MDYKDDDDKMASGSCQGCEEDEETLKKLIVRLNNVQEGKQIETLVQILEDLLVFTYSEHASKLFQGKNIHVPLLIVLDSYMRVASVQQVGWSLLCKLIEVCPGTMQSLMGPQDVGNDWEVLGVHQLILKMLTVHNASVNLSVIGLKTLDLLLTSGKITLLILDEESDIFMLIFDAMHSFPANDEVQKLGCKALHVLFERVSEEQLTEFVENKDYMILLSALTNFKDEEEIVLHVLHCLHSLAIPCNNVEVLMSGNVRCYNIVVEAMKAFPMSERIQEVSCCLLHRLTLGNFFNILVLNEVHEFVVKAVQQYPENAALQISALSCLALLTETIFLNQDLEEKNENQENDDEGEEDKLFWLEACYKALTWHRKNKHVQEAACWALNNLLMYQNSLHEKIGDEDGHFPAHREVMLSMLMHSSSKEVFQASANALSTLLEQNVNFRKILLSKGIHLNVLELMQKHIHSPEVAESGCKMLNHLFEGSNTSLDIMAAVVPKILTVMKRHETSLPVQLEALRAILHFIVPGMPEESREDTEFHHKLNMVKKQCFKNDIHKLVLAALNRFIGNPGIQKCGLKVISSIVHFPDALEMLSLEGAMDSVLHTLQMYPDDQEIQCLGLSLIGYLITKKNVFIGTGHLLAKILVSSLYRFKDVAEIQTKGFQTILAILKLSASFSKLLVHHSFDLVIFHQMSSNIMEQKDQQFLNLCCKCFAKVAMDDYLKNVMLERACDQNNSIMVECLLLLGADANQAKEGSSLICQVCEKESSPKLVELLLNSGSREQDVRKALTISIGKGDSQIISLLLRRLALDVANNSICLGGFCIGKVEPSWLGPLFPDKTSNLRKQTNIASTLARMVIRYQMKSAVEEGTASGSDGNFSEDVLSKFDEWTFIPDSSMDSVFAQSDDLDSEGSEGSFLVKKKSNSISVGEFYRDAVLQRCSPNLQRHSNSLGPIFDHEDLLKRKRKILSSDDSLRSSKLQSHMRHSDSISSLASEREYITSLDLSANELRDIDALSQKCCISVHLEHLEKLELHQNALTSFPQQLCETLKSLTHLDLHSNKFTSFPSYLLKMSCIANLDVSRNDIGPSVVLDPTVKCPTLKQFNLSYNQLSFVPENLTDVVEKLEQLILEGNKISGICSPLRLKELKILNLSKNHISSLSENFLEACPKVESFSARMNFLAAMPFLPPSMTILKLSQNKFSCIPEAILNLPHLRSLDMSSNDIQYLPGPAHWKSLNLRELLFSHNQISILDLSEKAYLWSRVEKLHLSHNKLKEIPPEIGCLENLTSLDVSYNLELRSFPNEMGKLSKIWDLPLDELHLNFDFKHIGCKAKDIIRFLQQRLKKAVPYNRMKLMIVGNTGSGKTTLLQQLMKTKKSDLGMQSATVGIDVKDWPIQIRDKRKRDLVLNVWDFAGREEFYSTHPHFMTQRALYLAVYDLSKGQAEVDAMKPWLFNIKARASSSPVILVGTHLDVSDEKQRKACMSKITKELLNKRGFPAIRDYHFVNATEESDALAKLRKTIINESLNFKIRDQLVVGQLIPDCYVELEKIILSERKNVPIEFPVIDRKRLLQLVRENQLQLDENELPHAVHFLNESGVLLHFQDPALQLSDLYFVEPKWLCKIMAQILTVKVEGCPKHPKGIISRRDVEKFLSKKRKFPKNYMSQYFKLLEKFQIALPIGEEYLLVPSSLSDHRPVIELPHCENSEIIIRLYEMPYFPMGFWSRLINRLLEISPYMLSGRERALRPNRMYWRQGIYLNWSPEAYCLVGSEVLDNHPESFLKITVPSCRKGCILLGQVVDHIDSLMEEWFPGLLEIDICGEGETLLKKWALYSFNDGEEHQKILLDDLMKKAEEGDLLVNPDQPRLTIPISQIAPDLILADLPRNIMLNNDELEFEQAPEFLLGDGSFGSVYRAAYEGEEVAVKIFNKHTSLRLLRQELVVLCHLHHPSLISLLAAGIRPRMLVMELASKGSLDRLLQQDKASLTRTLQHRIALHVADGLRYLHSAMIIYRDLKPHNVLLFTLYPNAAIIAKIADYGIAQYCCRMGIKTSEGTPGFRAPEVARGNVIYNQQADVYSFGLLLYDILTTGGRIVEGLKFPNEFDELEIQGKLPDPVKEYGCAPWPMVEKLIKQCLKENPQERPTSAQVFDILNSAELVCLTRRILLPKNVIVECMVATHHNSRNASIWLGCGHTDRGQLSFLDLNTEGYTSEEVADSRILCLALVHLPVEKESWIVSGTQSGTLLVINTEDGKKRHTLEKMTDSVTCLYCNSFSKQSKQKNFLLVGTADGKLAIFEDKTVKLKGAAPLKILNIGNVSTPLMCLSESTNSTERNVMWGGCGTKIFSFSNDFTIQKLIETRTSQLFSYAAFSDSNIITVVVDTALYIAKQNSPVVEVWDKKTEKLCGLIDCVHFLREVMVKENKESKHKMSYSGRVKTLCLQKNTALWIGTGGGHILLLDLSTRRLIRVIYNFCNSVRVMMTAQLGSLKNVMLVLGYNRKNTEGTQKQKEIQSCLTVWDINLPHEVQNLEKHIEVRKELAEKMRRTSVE

`Cc1c2c(nn1C1CCOCC1)OCCCNc1nc(ncc1Br)N2` [E367, 14-Bromo-4-methyl-5-(oxan-4-yl)-8-oxa-2,5,6,12,16,17-hexaaza tricyclo[11.3.1.0^3,7]heptadeca-1(16),3,6,13(17),14-pentaene]: the half-inhibitory concentration (IC50) in assay [1] and in assay [2] was not above 100 nM in each case.
In the case of `Cc1c2c(nn1CC(C)(C)O)OCCC(C)Nc1nc(ncc1Cl)N2` (single isomer, unassigned) [E265, 1-{14-Chloro-4,11-dimethyl-8-oxa-2,5,6,12,16,17-hexaazatricyclo[11.3.1.0^3,7]heptadeca-1(17),3,6,13,15-pentaen-5-yl}-2-methylpropan-2-ol], the IC50 in assay [1] and in assay [2] was not above 100 nM in each case.
`Cc1c2c(nn1C1CCCOC1)OCCCNc1cc(ncc1Cl)N2` (stereo not shown) [E379, 14-Chloro-4-methyl-5-(oxan-3-yl)-8-oxa-2,5,6,12,16-pentaazatricyclo[11.3.1.0^3,7] heptadeca-1 (16),3,6,13(17),14-pentaene]: the IC50 in assay [1] and in assay [2] was not above 100 nM throughout.
`Cc1c2c(nn1C1CCOCC1)OCCCNc1cc(ncc1Cl)N2` [E134, 14-Chloro-4-methyl-5-(oxan-4-yl)-8-oxa-2,5,6,12,16-pentaaza tricyclo[11.3.1.0^3,7]heptadeca-1(16),3,6,13(17),14-pentaene]: the IC50 in assay [1] and in assay [2] was not above 100 nM throughout.
Turning to `Cc1c2c(nn1C1CCOCC1)OCCC(C)Nc1nc(ncc1C(F)(F)F)N2` (single isomer, unassigned) [E291, 4,11-Dimethyl-5-(oxan-4-yl)-14-(trifluoromethyl) -8-oxa-2,5,6,12,16,17-hexaazatricyclo[11.3.1.0^3,7]heptadeca-1(16),3,6,13(17),14-pentaene], the half-inhibitory concentration (IC50) in assay [1] and in assay [2] was not above 100 nM in each case.
As for `Cc1c2c(nn1C1CC3CCC(C1)O3)OCCCNc1nc(ncc1Cl)N2` (single isomer, unassigned) [E243, 14-Chloro-4-methyl-5-{8-oxabicyclo[3.2.1]octan-3-yl}-8-oxa-2,5,6,12,16,17-hexaazatricyclo[11.3.1.0^3,7] heptadeca-1(16),3,6,13(17),14-pentaene], the IC50 in assay [1] and in assay [2] was not above 100 nM in each case.
Take `Cc1c2c(nn1C1CCOCC1)OCCCOc1nc(ncc1C(F)(F)F)N2` [E117, 4-Methyl-5-(oxan-4-yl)-14-(trifluoromethyl)-8,12-dioxa-2,5,6, 16,17-pentaazatricyclo[11.3.1.0^3,7]heptadeca-1(16),3,6,13(17),14-pentaene]: the IC50 in assay [1] and in assay [2] was not above 100 nM in each case.
In the case of `COC1CNc2nc(ncc2Cl)Nc2c(nn(C3CC4CCC(C3)O4)c2C)OC1` (single isomer, unassigned) [E245, 14-Chloro-10-methoxy-4-methyl-5-{8-oxabicyclo[3.2.1]octan-3-yl}-8-oxa-2,5,6,12,16,17-hexaazatricyclo [11.3.1.0^3,7]heptadeca-1(16),3,6,13(17),14-pentaene], the IC50 in assay [1] and in assay [2] was not above 100 nM throughout.
In the case of `Clc1cnc2nc1NCCCOc1n[nH]c(Cl)c1N2` [E396, 4,14-Dichloro-8-oxa-2,5,6,12,16,17 hexaazatricyclo[11.3.1.0^3,7] heptadeca-1(16),3,6,13(17),14-pentaene], the IC50 in assay [1] and in assay [2] was not above 100 nM in each case.
Regarding `COC1CNc2nc(ncc2Cl)Nc2c(nn(C3COC3)c2C)OC1` (single isomer, unassigned) [E270, 14-Chloro-10-methoxy-4-methyl-5-(oxetan-3-yl)-8-oxa-2,5,6,12,16,17-hexaazatricyclo[11.3.1.0^3,7]heptadeca-1(16),3,6,13(17),14-pentaene], the IC50 in assay [1] and in assay [2] was not above 100 nM throughout.
As for `Cc1c2c(nn1C(=O)C1CCOCC1)OCCCNc1nc(ncc1Cl)N2` [E363, 14-Chloro-4-methyl-5-(oxane-4-carbonyl)-8-oxa-2,5,6,12,16,17-hexaazatricyclo[11.3.1.0^3,7]heptadeca-1(16),3,6,13(17),14-pentaene], the IC50 (commonly the point on the concentration scale where inhibition reaches its midpoint) is not above 10000 nM in assay [1] and not above 100 nM in assay [2].
`Cc1[nH]nc2c1Nc1ncc(Cl)c(n1)N[C@H](C)CCO2` [E394, (11R)-14-Chloro-4,11-dimethyl-8-oxa-2,5,6,12,16,17-hexaazatricyclo[11.3.1.0^3,7]heptadeca-1(16),3,6,13(17),14-pentaene]: the IC50 in assay [1] and in assay [2] was not above 100 nM in each case.
Turning to `Cc1c2c(nn1C1CCOCC1)OCCC(CF)Nc1nc(ncc1Cl)N2` (single isomer, unassigned) [E54, 14-chloro-11-(fluoromethyl)-4-methyl-5-(oxan-4-yl)-8-oxa-2,5,6,12, 16,17-hexaazatricyclo[11.3.1.0^3,7]heptadeca-1(16),3,6,13(17),14-pentaene], the IC50 in assay [1] and in assay [2] was not above 100 nM each time.
Take `COCCn1nc2c(c1C)Nc1ncc(Cl)c(n1)NCCCO2` [E116, 14-Chloro-5-(2-methoxyethyl)-4-methyl-8-oxa-2,5,6,12,16,17-hexaazatricyclo[11.3.1.0^3,7]heptadeca-1(16),3,6,13(17),14-pentaene]: the IC50 in assay [1] and in assay [2] was not above 100 nM in each case.
As to `Cc1c2c(nn1[C@@H]1CCOC1)OCC[C@@H](C)Nc1nc(ncc1Cl)N2` [E47, (11R)-14-chloro-4,11-dimethyl-5-[(3R)-oxolan-3-yl]-8-oxa-2,5,6,12,16,17-hexaaza tricyclo [11.3.1.0^3,7]heptadeca-1(16),3,6,13(17),14-pentaene], the IC50 in assay [1] and in assay [2] was not above 100 nM throughout.
As to `Cc1c2c(nn1C1CCOCC1(C)C)OCC[C@@H](C)Nc1nc(ncc1Cl)N2` (single isomer, unassigned) [E422], the half-inhibitory concentration (IC50) in assay [1] and in assay [2] was not above 100 nM throughout.
For the molecule `FC(F)(F)c1cnc2nc1NCCCOc1nn(C3CCCOC3)cc1N2` (stereo not shown) [E130, 5-(Oxan-3-yl)-14-(trifluoromethyl)-8-oxa-2,5,6,12,16,17-hexaaza tricyclo[11.3.1.0^3,7]heptadeca-1(16),3,6,13(17),14-pentaene], the IC50 in assay [1] and in assay [2] was not above 100 nM each time.
On to `Cc1c2c(nn1C1CCOCC1)OCCC(C1CC1)Nc1nc(ncc1Cl)N2` (single isomer, unassigned) [E293, 14-Chloro-11-cyclopropyl-4-methyl-5-(oxan-4-yl)-8-oxa-2,5,6,12,16,17-hexaazatricyclo[11.3.1.0^3,7]heptadeca-1(16),3,6,13(17),14-pentaene], for which the IC50 in assay [1] and in assay [2] was not above 100 nM in each case.
Consider `CCc1c2c(nn1C1CCOCC1)OCC[C@@H](C)Nc1nc(ncc1Cl)N2` [E399, (11R)-14-Chloro-4-ethyl-11-methyl-5-(oxan-4-yl)-8-oxa-2,5,6,12,16,17-hexaazatricyclo[11.3.1.0^3,7]heptadeca-1(16),3,6,13(17),14-pentaene], for which the IC50 in assay [1] and in assay [2] was not above 100 nM throughout.
Regarding `C[C@@H]1CCOc2nn(C3CN(C4COC4)C3)c(Cl)c2Nc2ncc(Cl)c(n2)N1` [E427, (11R)-4,14-Dichloro-11-methyl-5-[1-(oxetan-3-yl)azetidin-3-yl]-8-oxa-2,5,6,12,16,17-hexaazatricyclo[11.3.1.0^3,7]heptadeca-1(16),3,6,13(17),14-pentaene], the IC50 in assay [1] and in assay [2] was not above 100 nM throughout.
With `Cc1c2c(nn1C1CN(C3COC3)CCC1F)OCC[C@@H](C)Nc1nc(ncc1Cl)N2` (single isomer, unassigned) [E403], the IC50 in assay [1] and in assay [2] was not above 100 nM throughout.
Consider `Cc1c2c(nn1C1CCC(N3CCOCC3)C1)OCCCNc1nc(ncc1Cl)N2` (single isomer, unassigned) [E369, 14-Chloro-4-methyl-5-[3-(morpholin-4-yl)cyclopentyl]-8-oxa-2,5,6,12,16,17-hexaazatricyclo[11.3.1.0^3,7] heptadeca-1(16),3,6,13(17),14-pentaene], for which the IC50 in assay [1] and in assay [2] was not above 100 nM in each case.
On to `Cc1c2c(nn1C1COCCC1(F)F)OCC[C@@H](C)Nc1nc(ncc1Cl)N2` (single isomer, unassigned) [E305], for which the IC50 in assay [1] and in assay [2] was not above 100 nM in each case.
Take `Cc1c2c(nn1C1COCCC1(F)F)OCCCNc1nc(ncc1Cl)N2` (single isomer, unassigned) [E302, 14-Chloro-5-(4,4-difluorooxan-3-yl)-4-methyl-8-oxa-2,5,6,12,16,17-hexaazatricyclo[11.3.1.0^3,7]heptadeca-1(16),3,6,13(17),14-pentaene]: the IC50 in assay [1] and in assay [2] was not above 100 nM in each case.
On to `CCC1CCOc2nn(C3CCOCC3)c(C)c2Nc2ncc(Cl)c(n2)N1` (single isomer, unassigned) [E20, 14-chloro-11-ethyl-4-methyl-5-(oxan-4-yl)-8-oxa-2,5,6,12,16,17-hexaazatricyclo[11.3.1.0^3,7]heptadeca-1(16),3,6,13(17),14-pentaene], for which the IC50 in assay [1] and in assay [2] was not above 100 nM each time.
On to `Cc1c2c(nn1C1CCOC1)OCCCNc1nc(ncc1Cl)N2` (single isomer, unassigned) [E123, 14-chloro-4-methyl-5-(oxolan-3-yl)-8-oxa-2,5,6,12,16,17-hexaazatricyclo[11.3.1.0^3,7]heptadeca-1(16),3,6,13(17), 14-pentaene], for which the IC50 in assay [1] and in assay [2] was not above 100 nM in each case.
